According to patent US9376665B2, “Method for producing intestinal cells” (National University Corporation Kumamoto University, priority 2010, dated 2016):

Columns and labels:
mouse ES cells [1] = test: Test Example 2: addition of various activators, proportion of Cdx2-positive cells by flow cytometry, feeder-free; type: cell-based; conditions: for efficiency of differentiation, BMP4 or SAG added besides FGF2: 15th day of cultivation, with BIO and DAPT
Protocol: Therefore, next, an experiment in which the FGF signaling, the BMP signaling and the Hh signaling were activated was carried out. In view of micro-array data showing that MEF cells express FGF2 and BMP4, 50 ng/mL of FGF2 (PEPROTECH) and 25 ng/mL of BMP4 (R&D Systems) were used to activate the FGF signaling and the BMP signaling. Furthermore, as to activation of the Hh signaling, 300 nM of SAG (MERCK) (smoothend agonist; smo) was used.
For the experiment of inducing the differentiation, the induction of differentiation was carried out in a feeder-free system as described below. First, mouse ES cells were plated on a gelatin-coated dish at 6,900 cells/cm^2. The ES cells were cultured for 7 days in DMEM medium (Dulbecco's Modified Eagle Medium) (Invitrogen, Glasgow, UK) containing 4,500 mg/L of glucose, supplemented with NEAA, L-Gln, PS, β-ME, 10 μg/mL of Insulin (Sigma-Aldrich), […] of Transferin (Sigma-Aldrich), 6.7 pg/mL of Selenium (Sigma-Aldrich), 0.25% AlbuMax (Invitrogen), and 10 ng/mL of recombinant human activin A (R&D Systems, Minneapolis, Minn.), and then, the culture medium was replaced with 10% KSR containing 2,000 mg/mL of glucose, BIO (5 μM) and DAPT (10 μM) and further supplemented with the activator or growth factor. After that, cell culturing was further continued, the cells were separated on the 10th day and the 15th day of cultivation as described in Example 1, and then, the proportion of Cdx2-positive cells was evaluated by use of flow cytometry. The flow cytometry (FACS) analysis was carried out using BD Cytofix/Cytoperm™ Kit (BD Biosciences) in accordance with a manual provided by the manufacturer.

mouse ES cells [2] = test: Test Example 1: addition of various inhibitors, Cdx2 expression by real-time PCR; type: cell-based; conditions: inhibitor plus BIO (5 μM) and DAPT (10 μM) on MEF cells for 8 days (12th day of cultivation), Noggin 500 ng/mL, Dorsomorphin 200 nM, KAAD-Cyclopamine 250 nM
Protocol: In order to clarify what mechanism induces the intestinal differentiation in a case where mouse ES cells are used as a starting material, inhibitors against various signal transduction systems were added besides BIO and DAPT, and conditions in which expression of an intestinal marker Cdx2 decreases were evaluated.
As an inhibitor, 500 ng/mL of Noggin (R&D systems) or 200 nM of Dorsomorphin (SIGMA-ALDRICH), which is a BMP-signaling inhibitor; 1 μM of LE540 (Wako), which is a retinoic-acid-signaling inhibitor; 250 nM of KAAD-Cyclopamine (Calbiochem), which is a hedgehog-signaling inhibitor; or 10 μM of AMD3100 (SIGMA-ALDRICH), which is a Cxcr4 inhibitor, was added thereto. […] After that, the above-sorted definitive endoderm cells were cultured in the presence of BIO (5 μM) and DAPT (10 μM) as well as the above-mentioned inhibitor for 8 days (until the 12th day of cultivation) in accordance with the method described in Example 1, RNAs were extracted from the cells by the method described in Example 1, and expression of the Cdx2 gene, namely an intestinal marker, was analyzed by real-time PCR. The real-time PCR was carried out by use of the primer pairs used in Example 1 (see Table 1), Thunderbird SYBR qPCR mix (Toyobo), and 7500 Fast Real-Time PCR system (ABI Company).

ES cells = test: Effect of signalling inhibitors on intestinal differentiation by BIO and DAPT (Cdx2 RT-PCR and immunohistochemistry); type: cell-based, mouse; conditions: inhibitor added with BIO and DAPT on MEF cells; RT-PCR and anti-Cdx2 immunohistochemistry, day 12
Protocol: Definitive endoderms were sorted from ES cells which had been cultured on M15 cells with activin and bFGF for 4 days, and the sorted cells were re-plated on MEF cells.
10 μg/mL of human bFGF (Peprotech), U0126 (Sigma), LY294002 (Calbiochem), and SU5402 (Calbiochem), respectively;

[3] = system: definitive endoderm cells; test: Re-culture of sorted ES cell-derived definitive endoderm cells on feeder cells with BIO and DAPT; marker expression; type: cell-based, mouse
Protocol: (§1) The ES cells were culture on M15 cells added with 20 ng/mL of activin and 50 ng/mL of bFGF in DMEM medium containing 10% fetal bovine sera and […] of glucose for 5 days, and were analyzed using flow cytometry for definitive endoderm. For intestinal differentiation, the ES cells were further cultured on M15 or MEF cells, in the presence of BIO and DAPT, or without BIO and DAPT but with FGFs, in media with 10% KSR at a glucose concentration of 2000 mg/mL.
The cells were dissociated with Cell Dissociation Buffer (Invitrogen), adjusted to 1×10^6 cells/50 μL, and stained with appropriate antibodies. A biotin- or Alexa 488-conjugated anti-E-cadherin monoclonal antibody ECCD2, and a phycoerythrin (PE)-conjugated anti-Cxcr4 mAb 2B11 (BD Pharmingen) were used as the antibodies. The stained cells were purified with FACS Aria (BD Pharmingen). Data were recorded using the BD FACSDiva Software program (BD Pharmingen), and were analyzed using the Flowjo program (Tree Star).
(§2) RNA was extracted from the ES cells using TRI Reagent (Sigma) or RNeasy micro-kit (Qiagen), and then, was treated with DNase (Sigma). Three micrograms of RNA were reverse-transcribed using a MMLV reverse transcriptase (Toyobo) and oligo dT primers (Toyobo). The PCR conditions for each cycle include initial denaturation at 96° C. for one minute, and the second and subsequent cycles of denaturation at 96° C. for 30 seconds, annealing at 60° C. for 2 seconds and extension at 72° C. for 20 seconds, and the final cycle of extension at 72° C. for 7 minutes. RT-PCR products were separated by 5% non-denaturing polyacrylamide gel electrophoresis, stained with SYBR Green I (Molecular Probes), and visualized using Gel Logic 200 Imaging System (Kodak).

mouse ES cells [4] = test: Intestinal differentiation of mouse ES cells on M15 cells; marker expression by PCR and immunohistochemistry; type: cell-based; conditions: quantitative PCR, BIO or DAPT added alone after definitive endoderm induction, Day 20 (d20)
Protocol: In this example, a cell line R1 was used as mouse ES cells. The cell line R1 was maintained on mouse embryonic fibroblast (MEF) feeders in 2000 mg/L-glucose-containing DMEM supplemented with Leukemia Inhibitory Factor (LIF), 10% fetal bovine serum (FBS), 100 μM of non-essential amino acids (NEAA), 2 mM of L-Gln, 50 units/mL of penicillin and 50 μg/mL of streptomycin (PS), and 100 μM β-mercaptoethanol.
as §1
RNA was extracted from the ES cells using TRI Reagent (Sigma) or RNeasy micro-kit (Qiagen), and then, was treated with DNase (Sigma). Three micrograms of RNA were reverse-transcribed using a MMLV reverse transcriptase (Toyobo) and oligo dT primers (Toyobo). […]

[5] = system: definitive endoderm cells; test: Effects of FGFs on intestinal differentiation of definitive endoderm cells (RT-PCR, Cdx2 immunohistochemistry); type: cell-based, mouse; conditions: FGFs added from Day 4 of the differentiation, on MEF cells; immunohistochemistry on day 12
Protocol: as §1
256 ng/mL of FGF2 (human bFGF) (Peprotech); and
50 ng/mL of FGF4 (Peprotech), FGF5 (Sigma), FGF7 (R&D Systems), FGF8 (Cosmo Bio), FGF9 (Peprotech), FGF10 (R&D Systems) and FGF18 (Sigma), respectively.
as §2

[6] = high concentration of DAPT in the presence of BIO (5 μM)
[7] = high BIO concentration with DAPT (10 μM)

## CNC1CCC(N(Cc2cccc(-c3ccncc3)c2)C(=O)c2sc3ccccc3c2Cl)CC1 (stereo not drawn) [SAG, N-Methyl-N′-(3-pyridinylbenzyl)-N′-(3-chlorobenzo[b]thiophene-2-carbonyl)-1,4-diaminocyclohexane, reference compound]
Mouse ES cells [1]; 10th day of cultivation, FGF2 50 ng/mL or SAG 300 nM added besides BIO and DAPT
  number of Cdx2-positive cells versus control (only BIO and DAPT): decrease
Mouse ES cells [1]
  efficiency of differentiation, BMP4 or SAG added besides FGF2: yet more efficiently differentiate

## KAAD-Cyclopamine [reference compound]
Mouse ES cells [2]
  expression of Cdx2: lowered

## N#CC(=C(/N)Sc1ccccc1N)/C(C#N)=C(\N)Sc1ccccc1N [U0126]
ES cells
  intestinal differentiation mediated by BIO and DAPT (Cdx2 expression): not inhibited

## C[C@H](NC(=O)Cc1cc(F)cc(F)c1)C(=O)N[C@H](C(=O)OC(C)(C)C)c1ccccc1 [DAPT, N-[(3,5-difluorophenyl)acetyl]-L-Ala-2-phenyl-L-Gly-tert-butyl-OH]
[3]; [6]
  anterior marker Pax8: turned off
  posterior marker Hoxc8: inducing
Mouse ES cells [4]
  expression of Intestinal fatty acid binding protein (Ifabp): induced expression

## O=C1Nc2cc(Br)ccc2/C1=C1/Nc2ccccc2/C1=N\O [BIO, (2′Z,3′E)-6-bromoindirubin-3′-oxime]
[3]; [7]
  Hoxc8: turning on
  Pax8: turned off
Mouse ES cells [4]
  expression of Intestinal fatty acid binding protein (Ifabp): induced expression

## Cc1c[nH]c(/C=C2\C(=O)Nc3ccccc32)c1CCC(=O)O [SU5402]
ES cells
  intestinal differentiation mediated by BIO and DAPT (Cdx2 expression): partially inhibited

B1: FGF10: FGF10 (R&D Systems), growth factor (protein, UniProt O15520 38-208, looked up)
Fibroblast growth factor 10: QALGQDMVSPEATNSSSSSFSSPSSAGRHVRSYNHLQGDVRWRKLFSFTKYFLKIEKNGKVSGTKKENCPYSILEITSVEIGVVAVKAINSNYYLAMNKKGKLYGSKEFNNDCKLKERIEENGYNTYASFNWQHNGRQMYVALNGKGAPRRGQKTRRKNTSAHFLPMVVHS
[5]
  induction of Cdx2-expressing intestinal cells: induced intestinal differentiation of ES cells, but the levels thereof were lower

B2: Noggin: Noggin (R&D systems), a BMP-signaling inhibitor (protein, UniProt Q13253 28-232, looked up)
Noggin: QHYLHIRPAPSDNLPLVDLIEHPDPIFDPKEKDLNETLLRSLLGGHYDPGFMATSPPEDRPGGGGGAAGGAEDLAELDQLLRQRPSGAMPSEIKGLEFSEGLAQGKKQRLSKKLRRKLQMWLWSQTFCPVLYAWNDLGSRFWPRYVKVGSCFSKRSCSVPEGMVCKPSKSVHLTVLRWRCQRRGGQRCGWIPIQYPIISECKCSC
Mouse ES cells [2]
  expression of Cdx2: lowered

B3: BMP4: BMP4 (R&D Systems), activates the BMP signaling (protein, UniProt P12644 293-408, looked up)
Bone morphogenetic protein 4: SPKHHSQRARKKNKNCRRHSLYVDFSDVGWNDWIVAPPGYQAFYCHGDCPFPLADHLNSTNHAIVQTLVNSVNSSIPKACCVPTELSAISMLYLDEYDKVVLKNYQEMVVEGCGCR
Mouse ES cells [1]; 10th day of cultivation, BMP4 25 ng/mL, SAG 300 nM, BIO and DAPT
  number of Cdx2-positive cells, BMP4 added in addition to SAG: improved
Mouse ES cells [1]
  efficiency of differentiation, BMP4 or SAG added besides FGF2: yet more efficiently differentiate

B4: FGF18: FGF18 (Sigma), growth factor (protein, UniProt O76093 28-207, looked up)
Fibroblast growth factor 18: EENVDFRIHVENQTRARDDVSRKQLRLYQLYSRTSGKHIQVLGRRISARGEDGDKYAQLLVETDTFGSQVRIKGKETEFYLCMNRKGKLVGKPDGTSKECVFIEKVLENNYTALMSAKYSGWYVGFTKKGRPRKGPKTRENQQDVHFMKRYPKGQPELQKPFKYTTVTKRSRRIRPTHPA
[5]
  induction of Cdx2-expressing intestinal cells: induced intestinal differentiation of ES cells, but the levels thereof were lower

B5: FGF4: FGF4 (Peprotech), growth factor (protein, UniProt P08620 31-206, looked up)
Fibroblast growth factor 4: APTAPNGTLEAELERRWESLVALSLARLPVAAQPKEAAVQSGAGDYLLGIKRLRRLYCNVGIGFHLQALPDGRIGGAHADTRDSLLELSPVERGVVSIFGVASRFFVAMSSKGKLYGSPFFTDECTFKEILLPNNYNAYESYKYPGMFIALSKNGKTKKGNRVSPTMKVTHFLPRL
[5]
  induction of Cdx2-expressing intestinal cells: more potent in inducing Cdx2-expressing cells than FGF2 (bFGF)

B6: FGF7: FGF7 (R&D Systems), growth factor (protein, UniProt P21781 32-194, looked up)
Fibroblast growth factor 7: CNDMTPEQMATNVNCSSPERHTRSYDYMEGGDIRVRRLFCRTQWYLRIDKRGKVKGTQEMKNNYNIMEIRTVAVGIVAIKGVESEFYLAMNKEGKLYAKKECNEDCNFKELILENHYNTYASAKWTHNGGEMFVALNQKGIPVRGKKTKKEQKTAHFLPMAIT
[5]
  induction of Cdx2-expressing intestinal cells: induced intestinal differentiation of ES cells, but the levels thereof were lower
